Measurements: patent publication US20180030080A1, “Phosphoramidate nucleoside prodrug for treating viral diseases and cancer, processes for their preparation and their use” (ASAVI, LLC, priority 2016, published 2018)
Where two headings read alike, the source gives them in different places.

Columns and labels:
[1] = system: xenograft models of human pancreatic cancer; settings: in vivo; cited from earlier work
[2] = in the clinic; cited from earlier work
[3] = system: HCV replicon; settings: cited from earlier work
[4] = system: HCV replicon gT4a; experiment: HCV replicon assay, genotype gT4a; assay type: cell-based; settings: Hepatitis C virus, mean
Method: (§1) Anti-HCV activity (EC50) and cytotoxicity (CC50) of prodrugs of general formula 1. The HCV replicon assay was used to determine the antiviral activity of chemotherapeutic agents of general formula 1 (test compounds). Sovaldi (PSI-7977) was used as the reference drug. The test cell line used in the HCV Replicon Assay was the human hepatoma cell line Huh7 incorporating the HCV replicons synthesized by an outside vendor. 96-well plates were seeded with cells at a density of 7.5×10^3 cells per well in 50 μl of assay media. The compound stock solution was made up freshly in an assay medium (DMEM 1×, Cellgro; cat. #10-013-CV) as a 2× stock. A total of 11 serial 3-fold dilutions of test compounds were prepared from the 2× stock in the assay media ranging from 20 nM-0.2 pM final concentrations. At least 4 hours after seeding the cells, compound treatment was initiated by adding 50 μl of compound dilution to the plates. […] The final DMSO concentration was 0.5%. Cells and inhibitors were incubated for 3 days at 37° C./5% CO2. The media was removed from the plates by gentle tapping. The cells were fixed with 100 μl 1:1 acetone:methanol for 1 minute, washed three times with PBS buffer, and then blocked with 150 μl/well 10% Fetal Bovine Serum (FBS) in PBS for 1 hour at room temperature. The cells were then washed three times with PBS buffer and incubated with 100 μl/well anti-hepatitis C core mAb (Affinity BioReagents; cat. # MA1-080, 1 mg/ml stock diluted 1:4,000 in 10% FBS-PBS) for 2 hours at 37° C. Then, the cells were washed three times with PBS and incubated with 100 μl/well HRP-Goat Anti-Mouse antibody (diluted 1:3.500 in 10% FBS-PBS) for 1 hour at 37° C. […] The reaction was stopped with 2N H2SO4 (100 μl/well), and the absorbance was measured at A490 X on a Victor^3 V 1420 multilabel counter (Perkin Elmer). The EC50 values were calculated for test compounds from the resulting best-fit equations determined by Xlfit software (Table 1).

[5] = system: HCV replicon gT2a; experiment: HCV replicon assay, genotype gT2a; assay type: cell-based; settings: Hepatitis C virus, mean
Method: Anti-HCV activity (EC50) and cytotoxicity (CC50) of prodrugs of general formula 1. The HCV replicon assay was used to determine the antiviral activity of chemotherapeutic agents of general formula 1 (test compounds). Sovaldi (PSI-7977) was used as the reference drug. The test cell line used in the HCV Replicon Assay was the human hepatoma cell line Huh7 incorporating the HCV replicons synthesized by an outside vendor. 96-well plates were seeded with cells at a density of 7.5×10^3 cells per well in 50 μl of assay media. The compound stock solution was made up freshly in an assay medium (DMEM 1×, Cellgro; cat. #10-013-CV) as a 2× stock. A total of 11 serial 3-fold dilutions of test compounds were prepared from the 2× stock in the assay media ranging from 20 nM-0.2 pM final concentrations. At least 4 hours after seeding the cells, compound treatment was initiated by adding 50 μl of compound dilution to the plates. The final concentrations of compound therefore ranged from 10 nM to 0.1 pM when diluted 1:1 in culture media. The final DMSO concentration was 0.5%. Cells and inhibitors were incubated for 3 days at 37° C./5% CO2. The media was removed from the plates by gentle tapping. The cells were fixed with 100 μl 1:1 acetone:methanol for 1 minute, washed three times with PBS buffer, and then blocked with 150 μl/well 10% Fetal Bovine Serum (FBS) in PBS for 1 hour at room temperature. The cells were then washed three times with PBS buffer and incubated with 100 μl/well anti-hepatitis C core mAb (Affinity BioReagents; cat. # MA1-080, 1 mg/ml stock diluted 1:4,000 in 10% FBS-PBS) for 2 hours at 37° C. Then, the cells were washed three times with PBS and incubated with 100 μl/well HRP-Goat Anti-Mouse antibody (diluted 1:3.500 in 10% FBS-PBS) for 1 hour at 37° C. […] The reaction was stopped with 2N H2SO4 (100 μl/well), and the absorbance was measured at A490 X on a Victor^3 V 1420 multilabel counter (Perkin Elmer). The EC50 values were calculated for test compounds from the resulting best-fit equations determined by Xlfit software (Table 1).

[6] = system: HCV replicon gT1b; experiment: HCV replicon assay, genotype gT1b; assay type: cell-based; settings: Hepatitis C virus
Method: Anti-HCV activity (EC50) and cytotoxicity (CC50) of prodrugs of general formula 1. The HCV replicon assay was used to determine the antiviral activity of chemotherapeutic agents of general formula 1 (test compounds). Sovaldi (PSI-7977) was used as the reference drug. The test cell line used in the HCV Replicon Assay was the human hepatoma cell line Huh7 incorporating the HCV replicons synthesized by an outside vendor. 96-well plates were seeded with cells at a density of 7.5×10^3 cells per well in 50 μl of assay media. The compound stock solution was made up freshly in an assay medium (DMEM 1×, Cellgro; cat. #10-013-CV) as a 2× stock. A total of 11 serial 3-fold dilutions of test compounds were prepared from the 2× stock in the assay media ranging from 20 nM-0.2 pM final concentrations. At least 4 hours after seeding the cells, compound treatment was initiated by adding 50 μl of compound dilution to the plates. […] The final DMSO concentration was 0.5%. Cells and inhibitors were incubated for 3 days at 37° C./5% CO2. The media was removed from the plates by gentle tapping. The cells were fixed with 100 μl 1:1 acetone:methanol for 1 minute, washed three times with PBS buffer, and then blocked with 150 μl/well 10% Fetal Bovine Serum (FBS) in PBS for 1 hour at room temperature. The cells were then washed three times with PBS buffer and incubated with 100 μl/well anti-hepatitis C core mAb (Affinity BioReagents; cat. # MA1-080, 1 mg/ml stock diluted 1:4,000 in 10% FBS-PBS) for 2 hours at 37° C. Then, the cells were washed three times with PBS and incubated with 100 μl/well HRP-Goat Anti-Mouse antibody (diluted 1:3.500 in 10% FBS-PBS) for 1 hour at 37° C. The cells were then washed three times with PBS and developed with an OPD solution, 100 μl/well (1 OPD tablet+12 ml citrate/phosphate buffer+5 μl 30% H2O2 per plate), for 30 minutes in the dark at room temperature. The reaction was stopped with 2N H2SO4 (100 μl/well), and the absorbance was measured at A490 X on a Victor^3 V 1420 multilabel counter (Perkin Elmer). The EC50 values were calculated for test compounds from the resulting best-fit equations determined by Xlfit software (Table 1).

[7] = system: HCV replicon gT5a; experiment: HCV replicon assay, genotype gT5a; assay type: cell-based; settings: Hepatitis C virus, mean
Method: as §1

[8] = system: HCV replicon gT1a; experiment: HCV replicon assay, genotype gT1a; assay type: cell-based; settings: Hepatitis C virus, mean
Method: as §1

[9] = system: HCV replicon gT3a; experiment: HCV replicon assay, genotype gT3a; assay type: cell-based; settings: Hepatitis C virus, mean
Method: as §1

[10] = system: wild-type HIV-1; settings: cited from earlier work
[11] = system: HIV; settings: in PBMCs, relative to TFV; cited from earlier work
[12] = system: Huh7; experiment: Cytotoxicity in Huh7 cells (ATPLite); assay type: cell-based, human; settings: at a concentration of 100 μM
Method: The cytotoxicity of the test compounds was studied in parallel using the same cell line, Huh7. Cell viability was determined using the ATPLite Kit (Perkin-Elmer, Boston, USA), according to manufacturer's instructions. 96-well black/transparent bottom plates were seeded with cells at a density of 7.5×10^3 cells per well in 50 μl medium. After 18 hours, compound treatment was initiated by adding 50 μl of compound dilution into the plates. Each compound dilution was tested in triplicates. The cells and inhibitors were then incubated for 96 hours at 37° C./5% CO2. The plates were washed twice with PBS (0.2 ml/well), and then lysed by adding lysis buffer, 0.05 ml/well (all reagents were included with the ATPLite Kit). After rocking for 5 min on a rocking platform, substrate buffer was added (0.05 ml/well). After additional 5-min incubation, the plates were kept in dark for 10 min, and the luminescence was read using TopCount NXT (Packard, Perkin Elmer). CC50 values for all test compounds were determined using XLfit 4.1 software.

[13] = system: HIV; settings: most potent and least cytotoxic analog; cited from earlier work
[14] = system: HBV wild-type; settings: cited from earlier work
[15] = 28-day toxicity studies in multiple species; cited from earlier work
[16] = system: HBV lamivudine-entecavir resistant clone (L180M+M204V+S202G); settings: resistant mutant (L180M+M204V+S202G); cited from earlier work
[17] = GT1B, read-out: IC50 HCV gT1b 10% FBS (mean)
[18] = gT1b, 40% NHS, mean, read-out: IC50 HCV gT1b 40% NHS (mean)

Compound: C[C@H](NP(=O)(OC[C@H]1O[C@@H](n2ccc(N)nc2=O)C(F)(F)[C@@H]1O)Oc1ccccc1)C(=O)OCc1ccccc1 (some centres unmarked) [NUC-1031, Gemcitabin-5′-phosphoramidate]
- tumor volume [1]: significantly reduced tumor volume

Compound: COc1nc(N)nc2c1ncn2[C@@H]1O[C@H](COP(=O)(N[C@@H](C)C(=O)OCC(C)(C)C)Oc2cccc3ccccc23)[C@@H](O)[C@@]1(C)O (some centres unmarked) [INX-08189]
- cardiovascular toxicity [2]: severe cardiovascular toxicity
- EC50 [3]: 10 nM

Compound: C=CCOC(=O)[C@H](C)NP(=O)(OC[C@H]1O[C@@H](n2ccc(=O)[nH]c2=O)[C@](C)(F)[C@@H]1O)Oc1ccccc1 (stereo partly drawn) [1.2(9), allyl (S)-2-{[(2R,3R,4R,5R)-5-(2,4-dioxo-3,4-dihydro-2H-pyrimidin-1-yl)-4-fluoro-3-hydroxy-4-methyl-tetrahydro-furan-2-ylmethoxy]-phenoxy-phosphorylamino}-propanoate]
- IC50 [4]: 100 nM
- IC50 [5]: 23 nM
- IC50 [6, 17]: 29 nM
- IC50 [6, 18]: 34 nM
- IC50 [7]: 146 nM
- IC50 [8]: 54 nM
- IC50 [9]: 51 nM

Compound: CCOC(=O)[C@H](C)N[P@](=O)(OC[C@@H]1OC[C@H](n2cc(C)c(=O)[nH]c2=O)O1)Oc1ccc(Br)cc1 [DOT-phosphoramidate, D-dioxolane-thymine 5′-(4-bromophenylethyloxy-L-alanyl-phosphate)]
- more potency relative to DOT [10]: 75 fold

Compound: CC(C)OC(=O)[C@H](C)N[P@](=O)(CO[C@H](C)Cn1cnc2c(N)ncnc21)Oc1ccccc1 [TAF, (S)-Isopropyl 2-(((S)-((((R)-1-(6-amino-9H-purin-9-yl)propan-2-yl)oxy)methyl)(phenoxy)-phosphoryl)amino)propanoate]
- more potent than TFV [11]: 400 fold

Compound: CC(C)OC(=O)[C@H](C)NP(=O)(OC[C@H]1O[C@@H](n2ccc(=O)[nH]c2=O)[C@](C)(F)[C@@H]1O)Oc1ccccc1 (some centres unmarked) [PSI-7851, reference compound]
- IC50 [4]: 350 nM
- IC50 [5]: 39 nM
- IC50 [6, 17]: 61 nM
- IC50 [6, 18]: 80 nM
- IC50 [7]: 395 nM
- Cell death [12]: 31%
- IC50 [8]: 103 nM
- IC50 [9]: 152 nM

Compound: CCOC(=O)[C@H](C)N[P@](=O)(OC[C@@H]1OC[C@H](n2cnc3c(NC4CC4)ncnc32)O1)Oc1ccccc1 [dioxolane-A mono-phosphoramidate]
- EC50 [13]: 86 nM

Compound: 2′-fluoro-6′-methylene-carbocyclic adenosine [FMCA]
- EC50 ([14]; HBV wild-type): 550 nM

Compound: CC(C)OC(=O)[C@H](C)N[P@](=O)(CO[C@@H]1C=C(F)C(n2cnc3c(N)ncnc32)O1)Oc1ccccc1 (some centres unmarked) [GS-9131]
- renal findings [15]: no significant renal findings

Compound: 2′-Fluoro-6′-methylene-carbocyclic adenosine phosphoramidate [5′-phosphoramidate of FMCA]
- EC50 [16]: 54 nM
- more potent than FMCA ([14]; against both the wild-type and resistant mutant): 10 fold

Compound: CC(C)OC(=O)[C@H](C)OC(=O)[C@H](C)NP(=O)(OC[C@H]1O[C@@H](n2ccc(=O)[nH]c2=O)[C@](C)(F)[C@@H]1O)Oc1ccccc1 (stereo partly drawn) [1.2(2), (S)-1-isopropyloxycarbonyl-ethyl (S)-2-{[(2R,3R,4R,5R)-5-(2,4-dioxo-3,4-dihydro-2H-pyrimidin-1-yl)-4-fluoro-3-hydroxy-4-methyl-tetrahydro-furan-2-ylmethoxy]-phenoxy-phosphorylamino}-propanoate]
- IC50 [4]: 80 nM
- IC50 [5]: 24 nM
- IC50 [6, 17]: 18 nM
- IC50 [6, 18]: 34 nM
- IC50 [7]: 185 nM
- IC50 [8]: 57 nM
- IC50 [9]: 69 nM
